The subject of one assay is Candida krusei 6258 (QC). As to the kind of experiment: MIC determination (NCCLS M27A), Candida krusei 6258 (QC). In kind it is cell-based.
Assay [1] concerns Cryptococcus neoformans I. The assay is described as follows: MIC determination (NCCLS M27A), Cryptococcus neoformans I. In kind it is cell-based.
The subject of a further assay is Candida krusei 766.1. As to the kind of experiment: MIC determination (NCCLS M27A), Candida krusei 766.1. The assay is classed as cell-based.
In the next assay the test system is Candida albicans1162. As to the kind of experiment: MIC determination (NCCLS M27A), Candida albicans 1162. In kind it is cell-based.
Another assay deals with Candida albicans Y-01-19. As to the kind of experiment: MIC determination (NCCLS M27A), Candida albicans Y-01-19. In kind it is cell-based.
The test system of another assay is Histoplasma capsulatum. The assay is described as follows: microbe, parasite or virus in culture. The assay is classed as cell-based.
In a further assay the test system is Candida glabrata 90030. The assay is described as follows: MIC determination (NCCLS M27A), Candida glabrata 90030. In kind it is cell-based.
In assay [2] the test system is Aspergillus fumigatus 1008. The assay is described as follows: MIC determination (NCCLS M38P), Aspergillus fumigatus 1008. In kind it is cell-based.
In assay [3] the test system is Cryptococcus neoformans M 106. As to the kind of experiment: MIC determination (NCCLS M27A), Cryptococcus neoformans M 106. In kind it is cell-based.
The subject of another assay is Candida tropicalis 750. The assay is described as follows: MIC determination (NCCLS M27A), Candida tropicalis 750. In kind it is cell-based.
In a further assay the test system is Candida albicans 1122. As to the kind of experiment: MIC determination (NCCLS M27A), Candida albicans 1122. The assay is classed as cell-based.
Assay [4] deals with Aspergillus fumigatus Si-I. The assay is described as follows: MIC determination (NCCLS M38P), Aspergillus fumigatus Si-I. The assay is classed as cell-based.
For assay [5], the system named is Candida parapsilosis 22019 (QC). The assay is described as follows: MIC determination (NCCLS M27A), Candida parapsilosis 22019 (QC). In kind it is cell-based.
Assay [6] concerns Paecilomyces variotti 22319 QC). As to the kind of experiment: MIC determination (NCCLS M38P), Paecilomyces variotti 22319 (QC). In kind it is cell-based.
The target in assay [7] is lanosterol 14α-de-methylase. Conditions: the target enzyme in the fungus, background statement; cited from earlier work.
For assay [8], the system named is isolates of Aspergillus species. Conditions: background statement; cited from earlier work.
[9] abbreviates: Candida krusei 766.1, RPMI 1640, MOPS pH 7.
[10] abbreviates: Candida albicans1162, RPMI 1640, MOPS pH 7.
[11] abbreviates: Candida albicans Y-01-19, RPMI 1640, MOPS pH 7.
Where [12] appears, read: Aspergillus fumigatus 1008, RPMI 1640, MOPS pH 7.
Setting [13] is: Cryptococcus neoformans M 106, RPMI 1640, MOPS pH 7.
The mark [14] stands for this setting: Aspergillus fumigatus Si-I, RPMI 1640, MOPS pH 7.
Setting [15] is: Pichia kudriavzevii, RPMI 1640, MOPS pH 7, read-out: MIC.
The mark [16] stands for this setting: RPMI 1640, MOPS pH 7, read-out: MIC.
Setting [17] is: Nakaseomyces glabratus, RPMI 1640, MOPS pH 7, read-out: MIC.

Each structure is given as a SMILES string. pIC50: −log10 of the molar value. In brackets after ≈: the same amount, converted by molar mass. Where two headings read alike, the source gives them in different places.

`C[C@@H]1[C@H](O)[C@@H](C)/C=C/C=C/C=C/C=C/C=C/C=C/C=C/[C@H](O[C@@H]2O[C@H](C)[C@@H](O)[C@H](N)[C@@H]2O)C[C@@H]2O[C@](O)(C[C@@H](O)C[C@@H](O)[C@H](O)CC[C@@H](O)C[C@@H](O)CC(=O)O[C@H]1C)C[C@H](O)[C@H]2C(=O)O` [Amphotericin B]: the MIC with Candida krusei 6258 (QC) (RPMI 1640, MOPS pH 7) was found to be 0.25 µg/mL (≈ 0.271 µM); in assay [1] (RPMI 1640, MOPS pH 7), 0.06 µg/mL (≈ 0.0649 µM); in the assay with Candida krusei 766.1 (setting [9]), 0.25 µg/mL (≈ 0.271 µM); against Candida albicans1162 (setting [10]), 0.06 µg/mL (≈ 0.0649 µM); with Candida albicans Y-01-19 (setting [11]) it was 0.125 µg/mL (≈ 0.135 µM); with Histoplasma capsulatum (RPMI 1640, MOPS pH 7), 0.25 µg/mL (≈ 0.271 µM). Further, the MIC in the assay with Candida glabrata 90030 (RPMI 1640, MOPS pH 7) was determined as 0.125 µg/mL (≈ 0.135 µM); in [2] (setting [12]), 0.125 µg/mL (≈ 0.135 µM); in assay [3] (setting [13]), 0.125 µg/mL (≈ 0.135 µM); in the assay on Candida tropicalis 750 (RPMI 1640, MOPS pH 7), 0.125 µg/mL (≈ 0.135 µM); in the assay on Candida albicans 1122 (RPMI 1640, MOPS pH 7) it was 0.125 µg/mL (≈ 0.135 µM); in [4] (setting [14]) it was 0.125 µg/mL (≈ 0.135 µM). Besides, the MIC in [5] (RPMI 1640, MOPS pH 7) is 0.25 µg/mL (≈ 0.271 µM); in assay [6] (RPMI 1640, MOPS pH 7), 0.06 µg/mL (≈ 0.0649 µM).

On to `C[C@@H](n1ncn(-c2ccc(OCc3ccccc3)cc2)c1=S)[C@](O)(Cn1cncn1)c1ccc(F)cc1F` [Compound No. 2, 2-[(1R,2R)-2 (2,4-Difluorophenyl)-2-hydroxy-1-methyl-3-(1H-1,2,4-triazol-1-yl)propyl]-4-(4-benzyloxyphenyl)-3-(2H, 4H)-1,2,4-thiotriazolone], for which the MIC was 0.125 µg/mL (≈ 0.234 µM) in the assay with Candida krusei 6258 (QC) (RPMI 1640, MOPS pH 7); 0.00025 µg/mL (≈ 0.000468 µM) in assay [1] (RPMI 1640, MOPS pH 7); 0.125 µg/mL (≈ 0.234 µM) against Candida krusei 766.1 (setting [9]); 0.03 µg/mL (≈ 0.0561 µM) in the assay on Candida albicans Y-01-19 (setting [11]); 0.03 µg/mL (≈ 0.0561 µM) in the assay with Histoplasma capsulatum (RPMI 1640, MOPS pH 7); 0.125 µg/mL (≈ 0.234 µM) in the assay with Candida glabrata 90030 (RPMI 1640, MOPS pH 7). Besides, the MIC came out at 0.125 µg/mL (≈ 0.234 µM) in assay [2] (setting [12]); 0.00025 µg/mL (≈ 0.000468 µM) in assay [3] (setting [13]); 0.002 µg/mL (≈ 0.00374 µM) against Candida tropicalis 750 (RPMI 1640, MOPS pH 7); 0.016 µg/mL (≈ 0.0299 µM) in assay [4] (setting [14]); 0.002 µg/mL (≈ 0.00374 µM) in assay [5] (RPMI 1640, MOPS pH 7); 0.06 µg/mL (≈ 0.112 µM) in [6] (RPMI 1640, MOPS pH 7).

Consider `OC(Cn1cncn1)(Cn1cncn1)c1ccc(F)cc1F` [Fluconazole], for which the MIC was 32 µg/mL (≈ 104 µM) in the assay on Candida krusei 6258 (QC) (setting [15]); 0.5 µg/mL (≈ 1.63 µM) in assay [1] (setting [16]); 128 µg/mL (≈ 418 µM) in the assay with Candida krusei 766.1 (Pichia kudriavzevii, 766.1, pH 7); over 128 µg/mL against Candida albicans1162 (Candida, ALBICANS1162, pH 7); 8 µg/mL (≈ 26.1 µM) in the assay with Candida albicans Y-01-19 (Y0119, Candida albicans Y-01-19, RPMI 1640, MOPS pH 7, read-out: MIC); 2 µg/mL (≈ 6.53 µM) with Histoplasma capsulatum (pH 7). Also, the MIC in the assay with Candida glabrata 90030 (setting [17]) is 64 µg/mL (≈ 209 µM); in assay [2] (Aspergillus fumigatus, 1008, pH 7), over 128 µg/mL; in assay [3] (M106, Cryptococcus neoformans M 106, RPMI 1640, MOPS pH 7, read-out: MIC), 2 µg/mL (≈ 6.53 µM); with Candida tropicalis 750 (setting [16]) it was 0.25 µg/mL (≈ 0.816 µM); with Candida albicans 1122 (setting [16]), 0.5 µg/mL (≈ 1.63 µM); in assay [4] (Aspergillus fumigatus, pH 7), over 128 µg/mL. In addition, the MIC in assay [5] (setting [16]) and in assay [6] (setting [16]) was 2 µg/mL (≈ 6.53 µM) throughout. Further, the negative logarithm of the IC50 (pIC50) in [7] was 5.32. Also, the “minimum inhibitory concentration (MIC) values” in assay [8] was 400 µg/mL (≈ 1310 µM).

With `CCC(C)n1ncn(-c2ccc(N3CCN(c4ccc(OCC5COC(Cn6cncn6)(c6ccc(Cl)cc6Cl)O5)cc4)CC3)cc2)c1=O` (stereo not shown) [Itraconazole], the MIC in the assay with Candida krusei 6258 (QC) (setting [15]) worked out at 0.5 µg/mL (≈ 0.709 µM); in assay [1] (setting [16]), 0.016 µg/mL (≈ 0.0227 µM); in the assay with Candida krusei 766.1 (Pichia kudriavzevii, Candida krusei 766.1, RPMI 1640, MOPS pH 7, read-out: MIC) it was 0.25 µg/mL (≈ 0.354 µM); in the assay on Candida albicans1162 (Candida albicans1162, RPMI 1640, MOPS pH 7, read-out: MIC), 32 µg/mL (≈ 45.3 µM); against Candida albicans Y-01-19 (Candida albicans, Y0119, pH 7) it was 0.125 µg/mL (≈ 0.177 µM); with Histoplasma capsulatum (pH 7), 0.25 µg/mL (≈ 0.354 µM). In addition, the MIC with Candida glabrata 90030 (setting [17]) worked out at 2 µg/mL (≈ 2.83 µM); in assay [2] (Aspergillus fumigatus 1008, RPMI 1640, MOPS pH 7, read-out: MIC), 0.25 µg/mL (≈ 0.354 µM); in assay [3] (Cryptococcus neoformans, M106, pH 7), 0.125 µg/mL (≈ 0.177 µM); in the assay with Candida tropicalis 750 (setting [16]), 0.03 µg/mL (≈ 0.0425 µM); in the assay on Candida albicans 1122 (setting [16]), 0.03 µg/mL (≈ 0.0425 µM); in assay [4] (Aspergillus fumigatus Si-I, RPMI 1640, MOPS pH 7, read-out: MIC), 0.25 µg/mL (≈ 0.354 µM). The MIC in [5] (setting [16]) is 0.06 µg/mL (≈ 0.085 µM); in [6] (setting [16]), 0.03 µg/mL (≈ 0.0425 µM).

For the compound `C[C@@H](n1ncn(-c2ccc(OCc3ccc(Cl)cc3Cl)cc2)c1=S)[C@](O)(Cn1cncn1)c1ccc(F)cc1F` [compound 1, 2-[(1R,2R)-2 (2,4-Difluorophenyl)-2-hydroxy-1-methyl-3-(1H-1,2,4-triazol-1-yl)propyl]-4-[4-(2,4-dichlorobenzyloxy)phenyl]-3-(2H, 4H)-1,2,4-thiotriazolone], the MIC in the assay with Candida krusei 6258 (QC) (RPMI 1640, MOPS pH 7) was under 0.125 µg/mL; in assay [1] (RPMI 1640, MOPS pH 7), under 0.03 µg/mL; in the assay with Candida krusei 766.1 (setting [9]) it was 0.5 µg/mL (≈ 0.829 µM); against Candida albicans1162 (setting [10]), “≧64 μg/ml”; against Candida albicans Y-01-19 (setting [11]) it was “≦0.125 μg/ml”; against Histoplasma capsulatum (RPMI 1640, MOPS pH 7), 0.5 µg/mL (≈ 0.829 µM). For the same compound, the MIC with Candida glabrata 90030 (RPMI 1640, MOPS pH 7) is 32 µg/mL (≈ 53 µM); in assay [2] (setting [12]), under 0.125 µg/mL; in [3] (setting [13]) it was under 0.03 µg/mL; in the assay on Candida tropicalis 750 (RPMI 1640, MOPS pH 7), under 0.125 µg/mL; against Candida albicans 1122 (RPMI 1640, MOPS pH 7) it was under 0.125 µg/mL; in assay [4] (setting [14]), under 0.125 µg/mL. For the same compound, the MIC was under 0.125 µg/mL in assay [5] (RPMI 1640, MOPS pH 7) and under 0.125 µg/mL in [6] (RPMI 1640, MOPS pH 7).

As a reminder, the pIC50 is the negative decadic logarithm of the IC50, by convention in mol/L.
